Measurements reported in patent US20180171411A1, “GFRalpha1 AS A BIOMARKER FOR CISPLATIN-INDUCED CHEMORESISTANCE AND METASTASIS” (THE BOARD OF REGENTS OF THE UNIVERSITY OF TEXAS SYSTEM, priority 2015, published 2018).

System: GFRα1 mRNA in MG-63 and U-2 OS cells
Assay: Quantitative real-time PCR of GFRα1 mRNA after cisplatin
Assay type: cell-based, human
Settings: both cell lines; dose and time dependent
Experimental: FIG. 1. Cisplatin induces GFRα1 expression in osteosarcoma cells. (a-c) Immunoblot analysis of osteosarcoma cell lysates with antibodies specific for GFRα1 and β-actin. (a) MG-63 and U-2 OS cells were treated with doxorubicin (5 μM), cisplatin (20 μM), or methotrexate (1 mM) for 24 hr. Immunoblot analysis of GFRα1 (left) and quantification of GFRα1 expression (right) after treatment of chemotherapeutic agents. (b) MG-63 and U-2 OS cells were treated with different concentrations of cisplatin for 24 hr. (c) MG-63 and U-2 OS cells were treated with cisplatin (20 μM) and collected at the indicated time. (d and e) Quantitative real-time PCR of GFRα1 mRNA expression after cisplatin treatment. Representative images (top) and quantitative analysis (bottom) of GFRα1 mRNA expression. The values are presented as a mean±s.d.m (n=3). ** denotes p<0.05 by t-test. (d) MG-63 and U-2 OS cells were treated with different concentrations of cisplatin for 24 hr. (e) MG-63 and U-2 OS cells were treated with cisplatin (20 μM) and collected at the indicated time.
Quantitative real-time (RT)-PCR (qPCR). Total RNA was collected and isolated from cell lines using the RNeasy system according to the manufacturer's protocol (Qiagen, Hilden, Germany). cDNA was generated from a 30 μl reaction containing total RNA (3 μg), reverse transcriptase and oligo dT primers (Promega, Madison, Wis.). […]

`N.N.[Cl][Pt][Cl]` [cisplatin, Cis-Diamineplatinum(II) dichloride] was tested, and the “level of GFRα1 mRNA” value was “increased”.
